Assay results reported in PubChem BioAssay AID1645863 (Buhrlage Lab, Dana-Farber Cancer Institute and Novartis …, 2021).
pIC50: −log10 of the molar value. Activity calls are given as the source filed them. How the calls were made is not given here. Where a SMILES comes first, the peptide text is derived from it. Bridges are numbered along the chain shown (N, C = ends). The star is where a group is joined. ξ: configuration not given here. Pentadecanoyl(3ξ-OH,15-Gua) = N=C(N)NCCCCCCCCCCCCC(O)CC(=O)*

Each compound was assayed against Ubiquitin carboxyl-terminal hydrolase 10 (Homo sapiens) (UniProt Q14694) (assay: ubiquitin-specific protease 10 DUB inhibitors, concentration-effect, biochemical, verification of primary screen actives (AID 1645863;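 further: potency values describe inhibition of USP10 cleavage of a fluorogenic ubiquitin substrate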)). Settings: USP10 deubiquitinase enzymatic assay.
Chain of Ubiquitin carboxyl-terminal hydrolase 10 (Homo sapiens) (Q14694 whole entry, looked up): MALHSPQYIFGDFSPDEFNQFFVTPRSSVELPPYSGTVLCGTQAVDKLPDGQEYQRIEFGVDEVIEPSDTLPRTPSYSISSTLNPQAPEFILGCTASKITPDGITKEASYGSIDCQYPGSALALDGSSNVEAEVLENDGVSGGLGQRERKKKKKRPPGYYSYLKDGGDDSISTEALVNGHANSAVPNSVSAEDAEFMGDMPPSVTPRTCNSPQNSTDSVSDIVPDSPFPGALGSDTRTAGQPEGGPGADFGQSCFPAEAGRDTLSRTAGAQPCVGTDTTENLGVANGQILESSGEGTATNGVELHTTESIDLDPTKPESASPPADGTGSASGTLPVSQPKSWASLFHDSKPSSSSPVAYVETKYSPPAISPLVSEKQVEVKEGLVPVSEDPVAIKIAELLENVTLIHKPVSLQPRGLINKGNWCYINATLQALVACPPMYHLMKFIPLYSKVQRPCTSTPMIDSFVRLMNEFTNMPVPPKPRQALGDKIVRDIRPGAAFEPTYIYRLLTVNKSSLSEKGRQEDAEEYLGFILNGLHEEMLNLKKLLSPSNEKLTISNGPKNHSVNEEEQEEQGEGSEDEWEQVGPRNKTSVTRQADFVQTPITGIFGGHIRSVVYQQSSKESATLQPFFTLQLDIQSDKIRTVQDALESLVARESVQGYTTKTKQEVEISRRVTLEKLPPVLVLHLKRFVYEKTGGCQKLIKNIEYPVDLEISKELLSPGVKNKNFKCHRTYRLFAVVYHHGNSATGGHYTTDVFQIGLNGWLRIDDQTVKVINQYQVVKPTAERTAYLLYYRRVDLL
For `O=C(CCCCn1c(=O)[nH]c2ccccc2c1=O)Nc1cccc(Cl)c1`, the IC50 was > 40 µM (inactive).
Work on `O=c1[nH]c(C2CCN(S(=O)(=O)c3ccc(S(=O)(=O)NC4CC4)cc3)CC2)nc2c1nnn2Cc1c(Cl)cccc1Cl` yielded a pIC50 of 4.56.
In the case of `O=C(NC1(O)C(=O)c2ccccc2C1=O)c1ccc(-c2csnn2)cc1`, the pIC50 was 5.02.
`Cc1[nH]nc(NC(=O)C2COc3ccccc3O2)c1-c1ccccc1` (configuration not stated) was tested, and the IC50 was > 40 µM (inactive).
With `O=C(NCc1ccccc1)Nc1cccc2ccccc12` the IC50 was > 40 µM (inactive).
`Cc1ccc(NC(=O)Nc2ccc(C)n(CC(=O)Nc3ccc(C)c(C)c3)c2=O)cc1` showed a pIC50 of 4.96.
`COc1ccc(CCNC(=O)Cn2c(=O)c3sccc3n(Cc3cccc([N+](=O)[O-])c3)c2=O)cc1OC` was tested, and the pIC50 was 4.80.
`CC(=O)c1cccc(NC(=O)COC(=O)c2sc3cc(F)ccc3c2Cl)c1` was tested, and the IC50 was > 40 µM (inactive).
`CCc1nc(SCC(=O)Nc2ccc(Cl)c(Cl)c2)c2oc3ccccc3c2n1` gave a pIC50 of 4.40.
`Cc1sc(NC(=O)c2ccc(S(=O)(=O)N(C)Cc3ccccc3)cc2)c(C(N)=O)c1C` was tested, and the IC50 was > 40 µM (inactive).
For `O=C(CNC(=O)c1ccc2nc(-n3cccc3)sc2c1)NCc1ccccc1`, the IC50 was > 40 µM (inactive).
With `Cc1cc(NS(=O)(=O)c2ccc(NC(=O)c3ccc(N4CCCC4)c([N+](=O)[O-])c3)cc2)no1` the pIC50 was 4.46.
In the case of `O=C(CCc1nnc2n(Cc3ccccc3Cl)c(=O)c3ccccc3n12)NCc1ccccc1`, the IC50 was > 40 µM (inactive).
With `O=C(c1ccc2occc2c1)N1CCC(S(=O)(=O)c2ccc(-c3ccco3)cc2)CC1` the IC50 was > 40 µM (inactive).
With `Cc1cc(N2CCOCC2)nc(N2CCN(C(=O)C(C)Oc3ccccc3)CC2)n1` (configuration not stated) the IC50 was > 40 µM (inactive).
Compound `Cc1noc(-c2cc(=O)n(CC(=O)Nc3ccccc3Cl)c3ccccc23)n1` has a pIC50 of 4.84.
With `O=C(c1ccncc1)N1CCN(CC2CC=CCC2)CC1` (configuration not stated) the IC50 was > 40 µM (inactive).
`CC/C=C\C/C=C\C/C=C\CCCCCCCC(=O)O` gave a pIC50 of 4.93.
For `O=S1(=O)CCN(Cc2c(F)cccc2F)c2c(F)nc(N3CCOCC3)c(F)c21`, the IC50 was > 40 µM (inactive).
In the case of `Cc1ccc(-n2cc(C(=O)NCCCc3ccccc3)nn2)cc1`, the pIC50 was 4.53.
`COc1ccc(NS(=O)(=O)c2cc(NC(=O)/C=C/c3ccco3)ccc2N2CCCC2)cc1` was tested, and the IC50 was > 40 µM (inactive).
In the case of `N#Cc1cccc(NC(=O)Nc2cccn(Cc3ccc(F)cc3)c2=O)c1`, the IC50 was > 40 µM (inactive).
For `CC(c1ccccc1)N1CC(O)=C(c2nc3ccccc3s2)C1=N` (configuration not stated), the IC50 was > 40 µM (inactive).
With `O=c1c2ccccc2oc2nc(-c3cccs3)n(-c3ccccc3)c(=O)c12` the pIC50 was 4.78.
For `Cn1c(O)c(C2=Nc3ccccc3SC(c3cccc(O)c3)C2)c(=O)[nH]c1=O` (configuration not stated), the IC50 was > 40 µM (inactive).
For `O=C(OC1CSc2nc3ccccc3n2C1)c1ccc([N+](=O)[O-])o1` (configuration not stated), the pIC50 was 4.64.
For `CCOC(=O)c1ccc(NC(=O)Cn2c(=O)n(CC(=O)NCc3ccco3)c(=O)c3ccccc32)cc1`, the pIC50 was 4.79.
In the case of `COc1cc(OC)c2c(c1)C(=O)C1=C(COC(C)(O)C1)C2=O` (configuration not stated), the IC50 was > 40 µM (inactive).
With `Nc1ncc(-c2ccc(F)cc2)c(C2CCCN(C(=O)c3ccn[nH]3)C2)n1` (configuration not stated) the IC50 was > 40 µM (inactive).
In the case of `O=C(NCc1ccco1)c1ccc(Cn2c(=O)c3sccc3n(Cc3cc(=O)n4ccccc4n3)c2=O)cc1`, the IC50 was > 40 µM (inactive).
`O=C1Cc2ccccc2C(=O)N1Cc1cccc(Cl)c1` was tested, and the pIC50 was 4.62.
For `O=C(CCSc1ccc(Cl)cc1)c1cccs1`, the IC50 was > 40 µM (inactive).
`NS(=O)(=O)c1cccc(NC(=O)/C=C/c2cn(-c3ccccc3)nc2-c2cccc([N+](=O)[O-])c2)c1` showed a pIC50 of 4.56.
For `COc1ccc2nc(N3CC(C(=O)Nc4ccc(C(N)=O)cc4)C3)sc2c1`, the IC50 was > 40 µM (inactive).
In the case of `Cc1nc2nc(C(c3ccccc3)c3ccccc3)[nH]n2c(=O)c1Cc1ccccc1`, the IC50 was > 40 µM (inactive).
`Cc1noc(C)c1COc1cccc(C(=O)Nc2cc(Cl)ccc2-n2cncn2)c1` was tested, and the IC50 was > 40 µM (inactive).
Work on `Cc1ccnc(NS(=O)(=O)c2ccc(NC(=O)c3ccc(S(=O)(=O)N(C)Cc4ccccc4)cc3)cc2)n1` yielded a pIC50 of 4.45.
For `Cc1ccccc1-n1ccc2nc(N3CCCC3)ncc2c1=O`, the IC50 was > 40 µM (inactive).
`Cc1c(OCC(=O)NCc2ccccc2Cl)ccc2c3c(c(=O)oc12)CCC3` was tested, and the IC50 was > 40 µM (inactive).
For `Cc1ccc(Cn2c(=O)c3ncccc3n(CC(=O)NCc3ccc(F)cc3)c2=O)cc1`, the pIC50 was 4.58.
`CCc1nnc(-c2ccc3ccn(CC(=O)N4CCN(c5ccccn5)CC4)c3c2)o1` was tested, and the IC50 was > 40 µM (inactive).
With `CCn1c(CNC(=O)c2cccc(C)c2)nnc1SCC(=O)N1CCc2ccccc21` the IC50 was > 40 µM (inactive).
`O=c1c2ccccc2nc(/C=C/c2ccco2)n1Cc1ccccc1` was tested, and the IC50 was > 40 µM (inactive).
For `Cc1ccc(-n2nc(C)c3c2NC(=O)CC3C(=O)c2cc3ccccc3o2)cc1C` (configuration not stated), the IC50 was > 40 µM (inactive).
For `COC(=O)c1ccc2c(=O)n(CCCCCC(=O)NCCc3ccc(S(N)(=O)=O)cc3)c(=O)[nH]c2c1`, the pIC50 was 4.61.
Work on `O=C(NCc1ccc(F)cc1)c1cccc(Nc2nc3ccccc3n3cnnc23)c1` yielded a pIC50 of 4.42.
Work on `COC(=O)c1c(OC)cc2c(c1C)Oc1c(Cl)c(O)c(Cl)c(C)c1C(=O)O2` yielded a pIC50 of 4.76.
In the case of `CC(C)Cc1ccc(-c2cc(-c3ccc(C(F)(F)F)cc3)c(C#N)c(=O)[nH]2)cc1`, the pIC50 was 5.01.
With `CCn1c(SCC(=O)Nc2ccc(C)c(Cl)c2)nnc1-c1ccc2c(c1)OCCO2` the IC50 was > 40 µM (inactive).
For `COc1ccc(NC(=O)Cn2c(=O)n(CCCC(=O)NC3CCCC3)c(=O)c3cc(Cl)ccc32)c(OC)c1`, the pIC50 was 4.56.
`COc1ccc(-c2cc3n(c(=N)c2C#N)CCc2cc4c(cc2-3)OCO4)cc1O` was tested, and the IC50 was > 40 µM (inactive).
With `CCn1cc2c(n1)c(=O)n(Cc1ccccc1)c(=O)n2CC(=O)NCc1ccc(C)cc1` the IC50 was > 40 µM (inactive).
Work on `Cc1nc(C(=O)NC2(O)C(=O)c3ccccc3C2=O)cs1` yielded a pIC50 of 5.17.
With `CCCn1c(=O)c2sccc2n2c(CCC(=O)N3CCc4ccccc4C3)nnc12` the IC50 was > 40 µM (inactive).
`Cc1cccc2nc(CSc3nc4ccc([N+](=O)[O-])cc4[nH]3)cn12` showed a pIC50 of 4.70.
`O=C(c1cnc2ccccc2n1)N1CCC(S(=O)(=O)c2ccc(-c3ccco3)cc2)CC1` was tested, and the IC50 was > 40 µM (inactive).
`CC(NC(=O)c1ccccc1)c1nc2ccccc2n1CC(=O)Nc1ccc(C#N)cc1` (configuration not stated) gave a pIC50 of 4.88.
`CC(C)Cc1nc2sc3c(SCC(=O)N4CCC(C)CC4)ncnc3c2c2c1COC(C)(C)C2` was tested, and the IC50 was > 40 µM (inactive).
For `Cc1ccc(CNCc2cc3c(-c4ccc(F)cc4)nn(-c4ccccc4)c3[nH]c2=O)cc1`, the IC50 was > 40 µM (inactive).
`Cc1ccccc1NC(=O)CSC1=NC2(CCCCC2)Nc2ccccc21` was tested, and the IC50 was > 40 µM (inactive).
Compound `CCC(C(=O)C(C)C(O)C(C)CCc1ccc(C)c(O)c1C(=O)O)C1OC(CC)(C2CCC(O)(CC)C(C)O2)CC1C` (configuration not stated) has a pIC50 of 5.00.
`Cc1cc(NC(=O)Cn2c(=O)n(Cc3ccco3)c(=O)c3ccc(C(=O)NCCc4ccccc4)cc32)n[nH]1` showed a pIC50 of 4.64.
Work on `CSc1ncccc1C(=O)NC1(O)C(=O)c2ccccc2C1=O` yielded a pIC50 of 5.01.
`Cc1nnc(-c2ccc3ccn(CC(=O)N4CCN(c5ccccc5)CC4)c3c2)o1` was tested, and the IC50 was > 40 µM (inactive).
`O=C(CSc1nnc2n(-c3ccccc3)c(=O)c3ccccc3n12)c1ccc(F)cc1` gave a pIC50 of 4.89.
In the case of `COc1cc(-c2ccccc2)c(O)c(O)c1-c1ccccc1`, the pIC50 was 4.85.
For `OC1CCCN(c2ncc(-c3cnccn3)c(-c3cccs3)n2)C1` (configuration not stated), the IC50 was > 40 µM (inactive).
With `c1ccc2sc(-c3csc(-c4ccc5c(c4)OCCO5)n3)nc2c1` the IC50 was > 40 µM (inactive).
With `O=C(COC(=O)c1ccc(NS(=O)(=O)c2ccc(F)c(F)c2)cc1)Nc1ccc(OCc2ccccc2)cc1` the pIC50 was 4.68.
In the case of `O=C(CSc1nc2ccccc2[nH]1)Nc1cccc2c1OCCO2`, the IC50 was > 40 µM (inactive).
For `O=C(Cn1c(=O)n(CCC(=O)NC2CCCC2)c(=O)c2ccccc21)NCc1ccccc1Cl`, the IC50 was > 40 µM (inactive).
With `Cn1c(=O)n(CCc2ccccc2)c(=O)c2c1nc1n2CCN1Cc1ccccc1` the IC50 was > 40 µM (inactive).
With `CC1NC(=O)C(CC(N)=O)NC(=O)C(C(C)O)NC(=O)C(Cc2ccc(O)cc2)NC(=O)C(C(C)C)NC(=O)C(NC(=O)CC(O)CCCCCCCCCCCCN=C(N)N)C(C)OC1=O` (configuration not stated) ({Pentadecanoyl(3ξ-OH,15-Gua)}-TVYTNA; ester 1-C; configuration not given here) the IC50 was > 40 µM (inactive).
In the case of `COc1ccccc1CNC(=O)C1c2ccccc2C(=O)N1Cc1ccccc1C` (configuration not stated), the IC50 was > 40 µM (inactive).
In the case of `CCOc1ccc2c(c1)c(=O)c(C(=O)c1ccccc1)cn2CC(=O)Nc1ccccc1`, the IC50 was > 40 µM (inactive).
Work on `O=C(COc1ccc(Cl)cc1)Nc1noc(-c2ccccc2)n1` yielded a pIC50 of 4.49.
For `Cc1ccc(Nc2nc(O)c(CC(=O)Nc3ccccc3C)s2)cc1C`, the IC50 was > 40 µM (inactive).
For `C/C=C/C=C/[C@@H]1Cc2cc(O)cc(O)c2O1`, the pIC50 was 4.45.
Compound `O=C(Nc1cc(S(=O)(=O)Nc2ccc(Cl)cc2)ccc1O)c1cc2c(s1)CCC2` has a pIC50 of 4.99.
In the case of `CCC(=O)Nc1nc2cc(NC(=O)Nc3ccccc3Cl)ccc2s1`, the IC50 was > 40 µM (inactive).
`Cc1cc(C)c2nc3c(cc2c1)CN(Cc1ccco1)C(=O)O3` was tested, and the IC50 was > 40 µM (inactive).
`O=c1cc(-c2ccc(O)c(O)c2)oc2cc(O)cc(O)c12` gave a pIC50 of 5.75.
With `O=C(c1ccccc1CN1CCOCC1)N1CCOCC2(C1)CN(c1ccc(F)cc1)C(=O)O2` (configuration not stated) the IC50 was > 40 µM (inactive).
In the case of `CCOc1ccc2c(c1)c(=O)c(C(=O)c1ccc(C)cc1)cn2CC(=O)Nc1ccc(C)cc1`, the IC50 was > 40 µM (inactive).
For `O=c1c2ccccc2nc(CSc2cccc(Cl)c2Cl)n1-c1ccccc1`, the IC50 was > 40 µM (inactive).
In the case of `CC(C)=CCCC1(C)C=Cc2c(O)c3c(c(CC=C(C)C)c2O1)OC12C(=CC4CC1C(C)(C)OC2(C/C=C(/C)C(=O)O)C4=O)C3=O` (configuration not stated), the pIC50 was 5.02.
For `O=C(Nc1ccc2snnc2c1)Nc1ccc(F)cc1F`, the IC50 was > 40 µM (inactive).
In the case of `CC1=C(C)C(N(c2ccccc2)c2ccccc2)N(CCC(C)C)C1=O` (configuration not stated), the IC50 was > 40 µM (inactive).
For `Cc1ccc(NC(=O)c2cc(-c3cccnc3)n[nH]2)cc1F`, the IC50 was > 40 µM (inactive).
For `CCOc1ccc(NC(=O)Cn2c(=O)n(CCCCCC(=O)NCc3ccc(F)cc3)c(=O)c3sccc32)cc1`, the pIC50 was 4.75.
In the case of `COC(=O)c1ccc(C(=O)Nc2cc3ccccc3cc2NC(=O)c2ccc(C(=O)OC)cc2)cc1`, the IC50 was > 40 µM (inactive).
`O=C(Cc1ccc(-n2c(=O)c3ccccc3n(Cc3cccc([N+](=O)[O-])c3)c2=O)cc1)NC1CCCC1` was tested, and the IC50 was > 40 µM (inactive).
